Assay results as given in patent US11000033B2, “Ketone or oxime compound, and herbicide” (NISSAN CHEMICAL CORPORATION, priority 2014, dated 2021).

What was measured:
Format in all cases: in vivo
rapeseed = experiment: Test Example 4: effect on crop by soil treatment (symbol g); conditions: application herbicide amount 320 g/ha
In short: (§1)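 Sterilized diluvial soil, spot sowing, ~1.5 cm soil cover; greenhouse 25–30° C.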

Stellaria media [1] = experiment: Test Example 5: herbicidal effect by foliage application, plastic box (symbol P); conditions: 320 g/ha, 3 weeks after application
In short: (§2)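 Emulsion formulation, diluted with water to the intended rate, was applied uniformly to leaves by small sprayer. Recipients were 14-day greenhouse-grown seedlings (25° C. to 30° C.). Assessment followed at 3 weeks.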

rice = experiment: Test Example 4: effect on crop by soil treatment (symbol b); conditions: application herbicide amount 320 g/ha
In short: as §1

Apera spica-venti = experiment: Test Example 5: herbicidal effect by foliage application, plastic box (symbol L); conditions: 320 g/ha, 3 weeks after application
In short: as §2

beet [2] = experiment: Test Example 4: effect on crop by soil treatment (symbol f); conditions: application herbicide amount 320 g/ha
In short: as §1

Digitaria ciliaris [3] = experiment: Test Example 4: herbicidal effect by soil treatment (symbol F); conditions: application herbicide amount 320 g/ha
In short: (§3)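 Seeds were sown in sterilized diluvial soil, covered with about 1.5 cm of soil, and the soil surface was sprayed with a water-diluted emulsion of the compound at a predetermined rate. Plants grew in a greenhouse at 25° C. to 30° C.; effects were scored visually 3 weeks after application.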

Chenopodium album = experiment: Test Example 5: herbicidal effect by foliage application, plastic box (symbol O); conditions: 320 g/ha, 3 weeks after application
In short: as §2

Digitaria ciliaris [4] = experiment: Test Example 5: herbicidal effect by foliage application, plastic box (symbol F); conditions: 320 g/ha, 3 weeks after application
In short: as §2

beet [5] = experiment: Test Example 5: effect on crop by foliage application, plastic box (symbol f); conditions: 320 g/ha, 3 weeks after application
In short: (§4)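 Diluvial soil, sterilized and boxed (21 × 13 × 7 cm), received spot-sown seed covered by about 1.5 cm soil; plants were then greenhouse-grown at 25–30° C.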

wheat = experiment: Test Example 5: effect on crop by foliage application, plastic box (symbol e); conditions: 320 g/ha, 3 weeks after application
In short: as §4

Veronica persica [6] = experiment: Test Example 5: herbicidal effect by foliage application, plastic box (symbol R); conditions: 320 g/ha, 3 weeks after application
In short: as §2

Abutilon theophrasti = experiment: Test Example 5: herbicidal effect by foliage application, plastic box (symbol M); conditions: 320 g/ha, 3 weeks after application
In short: as §2

rice plant = experiment: Test Example 5: effect on crop by foliage application, plastic box (symbol b); conditions: 320 g/ha, 3 weeks after application
In short: as §4

[7] = tested on: directly sowed rice plant; experiment: Test Example 3: effect on crop by foliage application, Wagner pot (symbol b); conditions: application herbicide amount 320 g/ha, Table 24
In short: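 Steps: fill a 1/10000-are Wagner pot with alluvial soil; add water and mix to submerge at 0.1–0.5 cm depth; sow rice plus Echinochloa crus-galli var. crus-galli, Leptochloa chinensis and Cyperus difformis; grow in a 25–30 °C greenhouse.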

Lolium multiflorum Lam. = experiment: Test Example 4: herbicidal effect by soil treatment (symbol K); conditions: application herbicide amount 320 g/ha
In short: as §3

Stellaria media [8] = experiment: Test Example 4: herbicidal effect by soil treatment (symbol P); conditions: application herbicide amount 320 g/ha
In short: as §3

[9] = tested on: Echinochloa crus-galli var. crus-galli; experiment: Test Example 4: herbicidal effect by soil treatment (symbol H); conditions: application herbicide amount 320 g/ha
In short: as §3

Setaria viridis = experiment: Test Example 5: herbicidal effect by foliage application, plastic box (symbol G); conditions: 320 g/ha, 3 weeks after application
In short: as §2

Galium spurium [10] = experiment: Test Example 5: herbicidal effect by foliage application, plastic box (symbol Q); conditions: 320 g/ha, 3 weeks after application
In short: as §2

Veronica persica [11] = experiment: Test Example 4: herbicidal effect by soil treatment (symbol R); conditions: application herbicide amount 320 g/ha
In short: as §3

corn = experiment: Test Example 4: effect on crop by soil treatment (symbol c); conditions: application herbicide amount 320 g/ha
In short: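 Crop seed is sown in spots together with several weed species in a box of sterilized diluvial soil. It is covered by about 1.5 cm of soil and kept in a greenhouse held between 25° C. and 30° C.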

Galium spurium [12] = experiment: Test Example 4: herbicidal effect by soil treatment (symbol Q); conditions: application herbicide amount 320 g/ha
In short: as §3

Alopecurus myosuroides = experiment: Test Example 4: herbicidal effect by soil treatment (symbol J); conditions: application herbicide amount 320 g/ha
In short: as §3

Avena fatua = experiment: Test Example 5: herbicidal effect by foliage application, plastic box (symbol I); conditions: 320 g/ha, 3 weeks after application
In short: as §2

soybean = experiment: Test Example 4: effect on crop by soil treatment (symbol d); conditions: application herbicide amount 320 g/ha
In short: as §1

Structure (SMILES)	Effect on crop grade, g: rapeseed (rapeseed)	P: Stellaria media, herbicidal effect grade (Stellaria media [1])	Effect on crop grade, b: directly sowed rice plant (rice)	L: Apera spica-venti, herbicidal effect grade (Apera spica-venti)	Effect on crop grade, f: beet (beet [2])	Herbicidal effect grade, F: Digitaria ciliaris (Digitaria ciliaris [3])	O: Chenopodium album, herbicidal effect grade (Chenopodium album)	F: Digitaria ciliaris, herbicidal effect grade (Digitaria ciliaris [4])	f: beet, effect on crop grade (beet [5])	e: wheat, effect on crop grade (wheat)	R: Veronica persica, herbicidal effect grade (Veronica persica [6])	M: Abutilon theophrasti, herbicidal effect grade (Abutilon theophrasti)	b: directly sowed rice plant, effect on crop grade (rice plant)	b (directly sowed rice plant) effect on crop grade [7]	Herbicidal effect grade, K: Lolium multiflorum Lam. (Lolium multiflorum Lam.)	Herbicidal effect grade, P: Stellaria media (Stellaria media [8])	Herbicidal effect grade, H: Echinochloa crus-galli var. crus-galli [9]	G: Setaria viridis, herbicidal effect grade (Setaria viridis)	Q: Galium spurium, herbicidal effect grade (Galium spurium [10])	Herbicidal effect grade, R: Veronica persica (Veronica persica [11])	also measured
CC#Cc1cc(C)c(C2=C(O)CC(CC(=NOC)C(C)C)C2=O)c(C)c1 (stereo not drawn) [9-006]	3 (Herbicidal ratio of 40% or higher and lower than 70%)	3 (Herbicidal ratio of 40% or higher and lower than 70%)	5 (Herbicidal ratio of 90% or more (almost completely withered))	5 (Herbicidal ratio of 90% or more (almost completely withered))	0 (Herbicidal ratio of 5% or lower (almost no effect))	5 (Herbicidal ratio of 90% or more (almost completely withered))	2 (Herbicidal ratio of 20% or higher and lower than 40%)	5 (Herbicidal ratio of 90% or more (almost completely withered))	0 (Herbicidal ratio of 5% or lower (almost no effect))	5 (Herbicidal ratio of 90% or more (almost completely withered))	4 (Herbicidal ratio of 70% or higher and lower than 90%)	0 (Herbicidal ratio of 5% or lower (almost no effect))	5 (Herbicidal ratio of 90% or more (almost completely withered))	5 (Herbicidal ratio of 90% or more (almost completely withered))	5 (Herbicidal ratio of 90% or more (almost completely withered))	0 (Herbicidal ratio of 5% or lower (almost no effect))	5 (Herbicidal ratio of 90% or more (almost completely withered))	5 (Herbicidal ratio of 90% or more (almost completely withered))	0 (Herbicidal ratio of 5% or lower (almost no effect))	4 (Herbicidal ratio of 70% or higher and lower than 90%)	Effect on crop grade, c: corn (corn): 5 (Herbicidal ratio of 90% or more (almost completely withered)); Herbicidal effect grade, Q: Galium spurium (Galium spurium [12]): 0 (Herbicidal ratio of 5% or lower (almost no effect)); Herbicidal effect grade, J: Alopecurus myosuroides (Alopecurus myosuroides): 5 (Herbicidal ratio of 90% or more (almost completely withered)); I: Avena fatua, herbicidal effect grade (Avena fatua): 4 (Herbicidal ratio of 70% or higher and lower than 90%); Effect on crop grade, d: soybean (soybean): 0 (Herbicidal ratio of 5% or lower (almost no effect))
CON=C(CC1CC(O)=C(c2c(C)cc(-n3cc(Cl)cn3)cc2C)C1=O)C1CC1 (stereo not drawn) [9-007]	0 (Herbicidal ratio of 5% or lower (almost no effect))	3 (Herbicidal ratio of 40% or higher and lower than 70%)	5 (Herbicidal ratio of 90% or more (almost completely withered))	5 (Herbicidal ratio of 90% or more (almost completely withered))	0 (Herbicidal ratio of 5% or lower (almost no effect))	5 (Herbicidal ratio of 90% or more (almost completely withered))	3 (Herbicidal ratio of 40% or higher and lower than 70%)	5 (Herbicidal ratio of 90% or more (almost completely withered))	0 (Herbicidal ratio of 5% or lower (almost no effect))	4 (Herbicidal ratio of 70% or higher and lower than 90%)	4 (Herbicidal ratio of 70% or higher and lower than 90%)	0 (Herbicidal ratio of 5% or lower (almost no effect))	5 (Herbicidal ratio of 90% or more (almost completely withered))	5 (Herbicidal ratio of 90% or more (almost completely withered))	5 (Herbicidal ratio of 90% or more (almost completely withered))	0 (Herbicidal ratio of 5% or lower (almost no effect))	3 (Herbicidal ratio of 40% or higher and lower than 70%)	5 (Herbicidal ratio of 90% or more (almost completely withered))	1 (Herbicidal ratio of 5% or higher and lower than 20%)	0 (Herbicidal ratio of 5% or lower (almost no effect))	Effect on crop grade, c: corn (corn): 0 (Herbicidal ratio of 5% or lower (almost no effect)); Herbicidal effect grade, Q: Galium spurium (Galium spurium [12]): 0 (Herbicidal ratio of 5% or lower (almost no effect)); Herbicidal effect grade, J: Alopecurus myosuroides (Alopecurus myosuroides): 5 (Herbicidal ratio of 90% or more (almost completely withered)); I: Avena fatua, herbicidal effect grade (Avena fatua): 5 (Herbicidal ratio of 90% or more (almost completely withered)); Effect on crop grade, d: soybean (soybean): 0 (Herbicidal ratio of 5% or lower (almost no effect))
CC#Cc1cc(C)c(C2=C(O)CC(CC(=NOC)C3CC3)C2=O)c(C)c1 (stereo not drawn) [9-008]	4 (Herbicidal ratio of 70% or higher and lower than 90%)	4 (Herbicidal ratio of 70% or higher and lower than 90%)	5 (Herbicidal ratio of 90% or more (almost completely withered))	5 (Herbicidal ratio of 90% or more (almost completely withered))	0 (Herbicidal ratio of 5% or lower (almost no effect))	5 (Herbicidal ratio of 90% or more (almost completely withered))	3 (Herbicidal ratio of 40% or higher and lower than 70%)	5 (Herbicidal ratio of 90% or more (almost completely withered))	0 (Herbicidal ratio of 5% or lower (almost no effect))	5 (Herbicidal ratio of 90% or more (almost completely withered))	4 (Herbicidal ratio of 70% or higher and lower than 90%)	4 (Herbicidal ratio of 70% or higher and lower than 90%)	5 (Herbicidal ratio of 90% or more (almost completely withered))	5 (Herbicidal ratio of 90% or more (almost completely withered))	5 (Herbicidal ratio of 90% or more (almost completely withered))	0 (Herbicidal ratio of 5% or lower (almost no effect))	5 (Herbicidal ratio of 90% or more (almost completely withered))	5 (Herbicidal ratio of 90% or more (almost completely withered))	2 (Herbicidal ratio of 20% or higher and lower than 40%)	3 (Herbicidal ratio of 40% or higher and lower than 70%)	Effect on crop grade, c: corn (corn): 4 (Herbicidal ratio of 70% or higher and lower than 90%); Herbicidal effect grade, Q: Galium spurium (Galium spurium [12]): 0 (Herbicidal ratio of 5% or lower (almost no effect)); Herbicidal effect grade, J: Alopecurus myosuroides (Alopecurus myosuroides): 5 (Herbicidal ratio of 90% or more (almost completely withered)); I: Avena fatua, herbicidal effect grade (Avena fatua): 4 (Herbicidal ratio of 70% or higher and lower than 90%); Effect on crop grade, d: soybean (soybean): 0 (Herbicidal ratio of 5% or lower (almost no effect))
